How the values were obtained:
PHH = experiment: Cytotoxicity (CellTiter-Glo ATP viability) in primary human hepatocytes, 48 h exposure; type: cell-based; conditions: Hepatocyte
Protocol: LiverPool cryoplateable hepatocytes (pool of 10 donors, mixed gender; BioIVT, Hicksville, NY, USA) were cultured in a collagen I (Sigma-Aldrich, St Louis, MO, USA) sandwich in INVITROGRO CP medium (BioIVT) complemented with the TORPEDO Antibiotic mix (BioIVT). Seeding density was 49,000 cells/well in a 96-well plate (cytotoxicity assay) or 350,000 cells/well in a 24-well plate (CYP activity assay), according to the manufacturer’s instructions. Exposure of the hepatocytes was started 48 h after seeding. For exposure assays, INVITROGRO HI medium (BioIVT) was used, as recommended. Cells plated in 96-well plates were exposed to a concentration range (six concentrations in 2x dilution) of five known hepatotoxic compounds for 48 h (single dose). Acetaminophen (CAS 103-90-2; 30 mM) and valproic acid (CAS 1069-66-5; 10 mM) were directly dissolved in assay medium (previously described for each hepatic cell model). […] For the latter, vehicle control (0.5% (v/v) DMSO) was used in the exposure experiments. All chemicals were obtained from Sigma-Aldrich, unless stated otherwise. […] The viability of exposed cells was determined by cellular ATP levels using the CellTiter-Glo Luminescent Cell Viability Assay (Promega, Madison, WI, USA). The CellTiter Glo reagent was prepared according to the manufacturer’s instructions. Briefly, the culture plate was equilibrated at room temperature for 30 min. Medium was removed from the plate, after which phosphate-buffered saline (PBS) and the CellTiter Glo reagent were added to each well in equal volumes. The plate was mixed for 2 min on an orbital shaker and incubated for an additional 10 min at room temperature. Luminescence was measured on the TriStar2 (Berthold Technologies, Bad Wildbad, Germany), and samples were normalized to (vehicle) control.

HepaRG = experiment: Cytotoxicity (CellTiter-Glo ATP viability) in HepaRG cells, 48 h exposure; type: cell-based; conditions: Homo sapiens
Protocol: Undifferentiated HepaRG cells were purchased from Biopredic International (Saint Grégoire, France). Cells were cultured (passage number between p18 and p28) in T75 flasks in culture medium consisting of William’s E medium (without phenol red; Thermo Fisher Scientific, Waltham, MA, USA) supplemented with 1% (v/v) penicillin-streptomycin (Thermo Fisher Scientific), 10% (v/v) fetal bovine serum (FBS; Thermo Fisher Scientific), 50 µM hydrocortisone 21-hemisuccinate (Sigma-Aldrich, St Louis, MO, USA), 2 mM GlutaMax (Thermo Fisher Scientific) and 5 µg/mL insulin (Sigma-Aldrich). For differentiation, cells were cultured for 7–10 days and upon confluence, the monolayer was switched to differentiation medium (culture medium supplemented with 1% (v/v) DMSO). After differentiation, cells were trypsinized using TrypLE (Thermo Fisher Scientific) and seeded at a density of 65,000 cells/well in a 96-well plate (cytotoxicity assay) or 130,000 cells/well in a 24-well plate (CYP activity assay). Cells were allowed to attach for 24 to 48 h. Before exposure, cells were washed with assay medium (culture medium without FBS), after which exposure was started. Cells plated in 96-well plates were exposed to a concentration range (six concentrations in 2x dilution) of five known hepatotoxic compounds for 48 h (single dose). Acetaminophen (CAS 103-90-2; 30 mM) and valproic acid (CAS 1069-66-5; 10 mM) were directly dissolved in assay medium (previously described for each hepatic cell model). […] For the latter, vehicle control (0.5% (v/v) DMSO) was used in the exposure experiments. All chemicals were obtained from Sigma-Aldrich, unless stated otherwise. […] The viability of exposed cells was determined by cellular ATP levels using the CellTiter-Glo Luminescent Cell Viability Assay (Promega, Madison, WI, USA). The CellTiter Glo reagent was prepared according to the manufacturer’s instructions. Briefly, the culture plate was equilibrated at room temperature for 30 min. Medium was removed from the plate, after which phosphate-buffered saline (PBS) and the CellTiter Glo reagent were added to each well in equal volumes. The plate was mixed for 2 min on an orbital shaker and incubated for an additional 10 min at room temperature. Luminescence was measured on the TriStar2 (Berthold Technologies, Bad Wildbad, Germany), and samples were normalized to (vehicle) control.

HL-ICOs = experiment: Cytotoxicity (CellTiter-Glo ATP viability) in hepatocyte-like intrahepatic cholangiocyte organoids, 48 h exposure; type: cell-based, human
Protocol: The cell suspension was cultured in MatrigelTM (Corning, New York, NY, USA) droplets in expansion medium (EM) until organoids were formed, as previously described. EM consisted of Advanced DMEM/F12 (Life Technologies) supplemented with 1% (v/v) penicillin-streptomycin (Life Technologies), 1% (v/v) GlutaMax (Life Technologies), 10 mM HEPES (4-(2-hydroxyethyl)-1-piperazineethanesulfonic acid, Life Technologies), 2% (v/v) B27 supplement without vitamin A (Invitrogen, Carlsbad, CA, USA), 1% (v/v) N2 supplement (Invitrogen), 10 mM nicotinamide (Sigma-Aldrich, St Louis, MO, USA), 1.25 mM N-acetylcysteine (Sigma-Aldrich), 10% (v/v) R-spondin-1 conditioned medium (the Rspo1-Fc-expressing cell line was a kind gift from Calvin J. Kuo), 10 μM forskolin (Sigma-Aldrich), 5 μM A83-01 (transforming growth factor beta inhibitor; Tocris Bioscience, Bristol, UK), 50 ng/mL EGF (Invitrogen), 25 ng/mL HGF (Peprotech, Rocky Hill, NJ, USA), 0.1 μg/mL FGF10 (Peprotech) and 10 nM recombinant human ([…])-gastrin I (Sigma-Aldrich). Medium was changed twice a week. Passaging occurred every 7-10 days at ratios ranging between 1:2 and 1:4. All cultures were kept in a humidified atmosphere of 95% air and 5% CO2 at 37 °C. Organoids were primed for differentiation with BMP7 (25 ng/mL, Peprotech) through spiking EM 3 days before shifting to hepatic differentiation medium (DM). DM consisted of EM without R-spondin-1, FGF10, and nicotinamide, supplemented with 100 ng/mL FGF19 (Peprotech), 500 nM A83-01 (Tocris Bioscience), 10 μM DAPT (Selleckchem, Munich, Germany), 25 ng/mL BMP-7 (Peprotech), and […] (Sigma-Aldrich). Organoids were kept on DM for up to 12 days. For exposure experiments, differentiation assay medium was prepared to reduce antioxidants in the medium. This assay medium consisted of DMEM GlutaMAX instead of DMEM-F12 medium complemented with the same components as differentiation medium excluding GlutaMAX, B27, and NAC. In 96-well format (cytotoxicity assay), 12,000 cells in 9 μL Matrigel per well were plated at the start of differentiation, and exposure was started at day 10 of differentiation for 48 h. In 24-well format (CYP activity assay), cells were densely plated in a fresh Matrigel droplet (50 μL) upon the start of differentiation, and cells were exposed to the CYP substrate cocktail on day 12 of differentiation. […] Cells plated in 96-well plates were exposed to a concentration range (six concentrations in 2x dilution) of five known hepatotoxic compounds for 48 h (single dose). Acetaminophen (CAS 103-90-2; 30 mM) and valproic acid (CAS 1069-66-5; 10 mM) were directly dissolved in assay medium (previously described for each hepatic cell model). […] For the latter, vehicle control (0.5% (v/v) DMSO) was used in the exposure experiments. All chemicals were obtained from Sigma-Aldrich, unless stated otherwise. […] The viability of exposed cells was determined by cellular ATP levels using the CellTiter-Glo Luminescent Cell Viability Assay (Promega, Madison, WI, USA). The CellTiter Glo reagent was prepared according to the manufacturer's instructions. Briefly, the culture plate was equilibrated at room temperature for 30 min. Medium was removed from the plate, after which phosphate-buffered saline (PBS) and the CellTiter Glo reagent were added to each well in equal volumes. The plate was mixed for 2 min on an orbital shaker and incubated for an additional 10 min at room temperature. Luminescence was measured on the TriStar2 (Berthold Technologies, Bad Wildbad, Germany), and samples were normalized to (vehicle) control.

[1] = PHH (pool of 10 donors, collagen I sandwich), 48 h single dose, cell viability (ATP)
[2] = 48 h single dose, median of three independent experiments, minimum and maximum EC50 within brackets
[3] = range of three independent experiments
[4] = HL-ICOs, range over the four ICO donors, 48 h
[5] = Homo sapiens, 48 h, HL-ICOs, range over the four ICO donors
[6] = Homo sapiens, HL-ICOs differentiation day 12, ICO donor in first HL-ICO column, 48 h single dose, cell viability (ATP)
[7] = Homo sapiens, HL-ICOs differentiation day 12, ICO donor in fourth HL-ICO column, 48 h single dose, cell viability (ATP)
[8] = Homo sapiens, HL-ICOs differentiation day 12, ICO donor in second HL-ICO column, 48 h single dose, cell viability (ATP)
[9] = Homo sapiens, HL-ICOs differentiation day 12, ICO donor in third HL-ICO column, 48 h single dose, cell viability (ATP)

| SMILES | EC50 (PHH; PHH) [µM] | EC50 (PHH; [1]) [µM] | EC50 (HepaRG; [2]) [µM] | EC50 (HepaRG; [3]) [µM] | EC50 (HL-ICOs; [4]) [µM] | EC50 (HL-ICOs; [5]) [µM] | EC50 (HL-ICOs; [6]) [µM] | EC50 (HL-ICOs; [7]) [µM] | EC50 (HL-ICOs; [8]) [µM] | EC50 (HL-ICOs; [9]) [µM] | EC50 (HL-ICOs; Homo sapiens, 48 h, HL-ICOs, the other three ICO donors, higher than highest tested concentration) [µM] | cytotoxicity (HL-ICOs; HL-ICOs, three ICO donors, up to 31.5 µM, 48 h) |
| --- | --- | --- | --- | --- | --- | --- | --- | --- | --- | --- | --- | --- |
| CC(=O)Nc1ccc(O)cc1 [Acetaminophen] | 4190 | 4190 | 4040 | 3460 to 6040 | 24000 to 24900 | 24000 to 26800 | 24900 | 24000 | 24600 | 26800 |  |  |
| O=C(O)Cc1ccccc1Nc1c(Cl)cccc1Cl [Diclofenac] |  | 421 | 352 | 272 to 435 |  |  | > 500 |  | > 500 | > 500 | > 500 |  |
| C1CCC(C(CC2CCCCN2)C2CCCCC2)CC1 (stereo not shown) [Perhexiline] |  | 8.07 | 26 | 10.5 to 26.4 |  |  | > 31.5 | > 31.5 | 9.68 | > 31.5 |  | no cytotoxicity |
| Cc1c(C)c2c(c(C)c1O)CCC(C)(COc1ccc(CC3SC(=O)NC3=O)cc1)O2 (stereo not shown) [Troglitazone] |  | 57.1 | 45.1 | 14.9 to 45.2 | 23.1 to 90.8 | 23.1 to 90.8 | 42.8 | 24.4 | 90.8 | 23.1 |  |  |
| CCCC(CCC)C(=O)O [Valproic Acid] | 9880 | 9880 | 4580 | 4170 to 6070 |  | > 10000 | > 10000 | > 10000 | > 10000 | > 10000 |  |  |
